Reference: ChEMBL document CHEMBL4266014, “Development of Hybrid Phospholipid Mimics as Effective Agonists for Liver Receptor Homologue-1” (ACS Med Chem Lett, 2018)
Activity calls are given as the source filed them. The calls are words filed in the database; no cut-off is given here.

Biological target: Nuclear receptor subfamily 5 group A member 2 (Homo sapiens) (UniProt O00482)
Assay: Agonist activity at recombinant full length human LRH1 expressed in HeLa cells up to 30 uM after 24 hrs by dual-glo luciferase reporter gene assay
Type: cell-based

Chain of Nuclear receptor subfamily 5 group A member 2 (Homo sapiens) (O00482 whole entry): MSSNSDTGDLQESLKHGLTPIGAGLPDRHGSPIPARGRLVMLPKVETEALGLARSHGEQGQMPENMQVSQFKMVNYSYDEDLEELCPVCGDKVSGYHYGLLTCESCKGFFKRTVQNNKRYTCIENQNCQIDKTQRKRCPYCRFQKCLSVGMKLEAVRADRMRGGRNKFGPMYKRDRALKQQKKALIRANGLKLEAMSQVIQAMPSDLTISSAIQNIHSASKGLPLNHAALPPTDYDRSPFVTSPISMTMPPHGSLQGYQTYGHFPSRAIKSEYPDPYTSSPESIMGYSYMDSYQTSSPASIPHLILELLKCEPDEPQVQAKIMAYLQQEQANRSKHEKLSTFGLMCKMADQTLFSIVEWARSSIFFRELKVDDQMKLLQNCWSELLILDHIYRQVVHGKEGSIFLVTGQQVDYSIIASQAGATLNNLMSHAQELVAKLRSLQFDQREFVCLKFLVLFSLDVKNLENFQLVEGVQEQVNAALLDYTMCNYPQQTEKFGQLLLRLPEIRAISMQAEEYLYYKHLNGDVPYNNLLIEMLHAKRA

Activity	Structure (SMILES)
inactive	C=C(c1ccccc1)[C@@]12CC[C@@H](O)[C@@H]1CC(CCCC(=O)O)=C2c1ccccc1 (relative stereo)
inactive	C=C(c1ccccc1)[C@@]12CC[C@@H](O)[C@@H]1CC(CCCCCC(=O)O)=C2c1ccccc1 (relative stereo)
inactive	C=C(c1ccccc1)[C@@]12CC[C@@H](O)[C@@H]1CC(CCCCC(=O)O)=C2c1ccccc1
inactive	C=C(c1ccccc1)[C@@]12CC[C@@H](O)[C@@H]1CC(CCCCCCCOP(=O)([O-])OCC[N+](C)(C)C)=C2c1ccccc1
inactive	C=C(c1ccccc1)[C@@]12CC[C@@H](O)[C@@H]1CC(CCCCCCC(=O)O)=C2c1ccccc1 (relative stereo)
inactive	C=C(c1ccccc1)[C@@]12CC[C@@H](O)[C@@H]1CC(CCCCCCCCOP(=O)([O-])OCC[N+](C)(C)C)=C2c1ccccc1
inactive	C=C(c1ccccc1)[C@@]12CC[C@@H](O)[C@@H]1CC(CCCCCCOP(=O)([O-])OCC[N+](C)(C)C)=C2c1ccccc1
